Where “and” joins values, the source holds several entries; their conditions need not be identical. Identical values can stand only once.
Experiments:
ATG1240 = experiment: Km titration in HEK293 cell lysates; format: biochemical, click beetle
Experimental: (§1) Some of the variants identified in Examples 2 and 3 were screened for their performance in mammalian cells. DNA was prepared by Plasmid.com. HEK293 and HeLa cells were plated into wells of a 24-well plate at 0.05×10^6 cells/mL and grown overnight at 37° C. with CO2. 2.2 μg variant DNA was mixed with 80 μL OptiMEM and 6.6 μL FuGENE® HD transfection reagent (Promega Corporation) and incubated at room temperature for 5 min. 25 μL of the DNA mixture was added to each well. After overnight incubation, the media was removed from the cells and 1 mL DPBS (Life Technologies) was added. […] Luminescence of the variants was normalized to the average of two CBR samples (FIG. 6 and FIG. 7). C. Km Titration. Cell lysates of ATG 1230 and ATG 1240 expressed in HEK293 cells were prepared as described in Example 4. The cell lysates were then diluted 1:10 in 0.3×PLB+0.1% Prionex. Dilutions (2×) of each substrate (PBI-4813 or PBI-4739) were prepared in Bright-Glo™ Assay buffer containing 1 mM ATP. 50 μL of diluted cell lysate was assayed with 50 μL of each substrate assay solution. Luminescence was detected on the GloMax® Discover (FIG. 12). […] Because the enzyme concentration is not known for the lysates of for live cell titrations, Vmax as expressed as a velocity is not possible. Instead, the relative Vmax calculates the maximum brightness for each lysate with different substrates.

CBR [1] = experiment: Km titration in HEK293 cell lysates; format: biochemical, click beetle
Experimental: as §1

CBR [2] = experiment: Km titration in live HeLa cells; format: cell-based, click beetle; details: 60 min at 37° C.
Experimental: (§2) HeLa cells were plated at 20,000 cells/well into wells of 96-well white assay plates and grown overnight. A transfection mixture was made containing 13 μg of CBR DNA and 40 μL FuGENE® HD in a total volume of 620 μL OptiMEM. The mixture was incubated at room temperature for 10 min. The cells were then transfected, in triplicate, with 5 μL of transfection complex and grown overnight. […] The growth media from the transfected cells was removed and replaced with one of the 3× serial diluted substrate containing media. The cells were incubated for 60 min at 37° C. Luminescence was detected on a GloMax®-Multi+luminometer (FIG. 21A and FIG. 21B).

CBR [3] = experiment: Km titration in live HEK293T cells; format: cell-based, click beetle; details: 60 min at 37° C.
Experimental: as §2, with “HEK293T” for “HeLa”, “15,000” for “20,000”, “incubated” for “incubated for”, “C., and the cells were imaged” for “C. Luminescence was detected”, “ImageQuant CCD imager” for “GloMax®-Multi+luminometer”, “22).” for “21A and FIG. 21B).”

[4] = biological target: T1, QuantiLum® luciferase (firefly) (Photinus pyralis, UniProt P08659); experiment: Spectral scan of near-IR substrates with purified enzyme; format: biochemical; details: substrate 1 mM in Bright-Glo Assay buffer + 1 mM ATP
T1 construct: purchased Promega E1701
T1 sequence (P08659 whole entry): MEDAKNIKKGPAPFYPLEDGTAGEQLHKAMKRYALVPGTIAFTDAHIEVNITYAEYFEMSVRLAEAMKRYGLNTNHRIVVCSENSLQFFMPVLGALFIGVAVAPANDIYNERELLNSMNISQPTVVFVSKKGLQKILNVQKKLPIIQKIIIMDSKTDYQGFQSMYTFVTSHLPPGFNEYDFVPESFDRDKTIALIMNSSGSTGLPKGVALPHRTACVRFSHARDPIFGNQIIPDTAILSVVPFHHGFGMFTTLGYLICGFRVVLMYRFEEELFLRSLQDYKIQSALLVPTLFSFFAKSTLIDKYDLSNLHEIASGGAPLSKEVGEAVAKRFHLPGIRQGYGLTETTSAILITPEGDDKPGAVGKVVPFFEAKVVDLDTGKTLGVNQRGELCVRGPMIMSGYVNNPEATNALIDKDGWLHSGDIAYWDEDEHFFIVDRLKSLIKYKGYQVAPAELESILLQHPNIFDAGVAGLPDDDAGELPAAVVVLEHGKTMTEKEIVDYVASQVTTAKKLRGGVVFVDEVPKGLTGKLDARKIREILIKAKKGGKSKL
Experimental: Materials: The following were used in the Examples: Ultra-Glo™ Luciferase (Promega Cat. No. E140); QuantiLum® Recombinant Luciferase (Promega Cat. No. E1701); Click Beetle Red Luciferase (CBR; 0.5 mg/mL purified; Promega); Bright-Glo™ assay buffer (Promega Cat. No. E264A); PBI-4739 (Promega—See FIG. 1); and PBI-4813 (Promega—See FIG. 1).
Experimental Details. The substrates, PBI-4813 and PBI-4739, were diluted to 1 mM (final concentration) in Bright-Glo™ Assay buffer+1 mM ATP. 50 μL of substrate solution was added to 50 μL of Click Beetle Red, UltraGlo® or QuantiLum® purified enzyme (0.5 mg/mL diluted in DMEM+0.1% Prionex) in triplicate, and then the samples assayed using a Tecan M-1000 plate reader in spectral scan mode.
FIG. 2 provides the spectral data for Click Beetle Red Luciferase with PBI-4813 (A) and PBI-4739 (B), where the spectral maximum was 655 nm for PBI-4813 and 760 nm for PBI-4739. FIG. 3 provides the spectral data for UltraGlo® luciferase with PBI-4813 (A) and PBI-4739 (B), where the spectral maximum was 670 nm for PBI-4813 and 660 nm for PBI-4739. FIG. 4 provides the spectral data for QuantiLum® luciferase (firefly) with PBI-4813 (A) and PBI-4739 (B), where the spectral maximum was 680 nm for PBI-4813 and equal to or greater than 700 nm for PBI-4739.

ATG 1240 = experiment: Mimicry of tissue attenuation using long pass filters, transfected HEK293T cells; format: cell-based, click beetle; details: HEK293T cells expressing ATG 1240; long pass filters
Experimental: A transfection complex was prepared by diluting ATG 1240 DNA or Luc2 DNA (pF4Ag-Luc2) to 100 ng/μL, and then 2× serial dilutions prepared in 50 ng/μL pGEM carrier DNA. 40 μL of the diluted DNA was the mixed with 160 μL phenol red free OptiMEM and 16 μL of FuGENE® HD and incubated for 20 min. 5 μL of each transfection complex was added to wells of a 96-well black assay plates and then 100 μL of diluted HEK293T cells (200,000/mL in DMEM+10% FBS) was added. The cells were grown overnight at 37° C. with CO2.
To assay the cells, 4 mM D-luciferin, 2 mM PBI-4813 and 2 mM PBI-4739 substrate solutions were prepared in DMEM+10% FBS. 100 μL of the D-luciferin solution was added to cells expressing Luc2 and ATG 1240, and 100 μL of PBI-4813 or PBI-4739 solution was added to ATG 1240 expressing cells. Samples were incubated for 10 min at 37° C., and luminescence detected on GloMax® Discover (heated to 37° C.) with no filter, 610 nm Long Pass (LP) filter, 665 nm LP filter, 695 nm LP filter, 720 nm LP filter or 760 nm LP filter.

[5] = Km in live cell (remark in Example 13); format: cell-based; details: enzyme not stated
[6] = Substrate inhibition of luciferase activity at high substrate concentration; format: biochemical
cells = experiment: Cell toxicity studies; format: cell-based; details: compared to D-luciferin
[7] = test system: Click Beetle Red (CBR) mutant(s); experiment: Light emission from Click Beetle Red mutant(s) with the red-shifted substrates; format: biochemical; details: PBI-4813 compared with PBI-4739
[8] = Solubility of the substrates; format: physicochemical; details: PBI-4739 compared with PBI-4813
[9] = Luminescence of ATG 1230 and ATG 1240 cell lysates, GloMax Discover with red-sensitive PMT; format: biochemical
Experimental: 2. Cell lysates were prepared from cells containing the variants listed in Table 3 by diluting 100 μL of induced culture with 100 μL of lysis buffer (0.3×PLB, 0.006U RQ DNAse1) using a Tecan liquid handling robot. 50 μL of each cell lysate was assayed with either PBI-4813 or PBI-4739 (20 μM in Bright-Glo™ assay buffer containing 1 mM ATP), and luminescence detected on an ImageQuant CCD imager. Luminescence of the variants was normalized to CBR luciferase (FIG. 8).
Variant clones identified as ATG 1230 (CBR+389F+444R+251S) and ATG 1240 (CBR+334S+351R) were further evaluated for their luminescence, spectral property, Km and live cell kinetics with either PBI-4813 or PBI-4739. These variants were cloned and expressed as described in Example 2 except the template was pF4Ag-CBR, i.e., no HALOTAG®.
A. Luminescence with PBI-4813 and PBI-4739. Cell lysates of these variant clones were prepared and assayed for luminescence as described in Example 6. Luminescence was detected on a GloMax® Discover equipped with a red-sensitive photomultiplier tube (PMT) and compared to CBR luciferase (Table 5 and FIG. 10).

[10] = Km titration of ATG 1240 compared with CBR in live HEK293T cells; format: cell-based; details: 60 min at 37° C.
Experimental: HEK293T cells were plated at 15,000 cells/well into wells of 96-well white assay plates and grown overnight. A transfection mixture was made containing 6.6 μg of CBR or ATG-1240 DNA and 20 μL FuGENE® HD in a total volume of 310 μL OptiMEM. The mixture was incubated at room temperature for 10 min. The cells were then transfected, in triplicate, with 5 μL of transfection complex and grown overnight.
The transfected cells were then assayed. 2× serial dilutions of PBI-4813 and PBI-4739 starting at 2 mM in CO2 independent media+0.5% FBS were prepared. The growth media from the transfected cells was removed and replaced with one of the serial diluted substrate containing media. The cells were incubated 60 min at 37° C., and luminescence detected on a modified GloMax® Discover luminometer containing a red shifted PMT (see FIG. 23A and FIG. 23B). The Km of ATG 1240 was about 5 times higher than the Km of CBR with PBI-4813. The Km of ATG 1240 was about 3 times higher than the Km of CBR with PBI-4739.

[11] = Secondary library screen using ATG 1240 as template, lysate luminescence; format: biochemical; details: ATG 1240 template (WT = ATG-1240)
Experimental: A random clone library was prepared as described in Example 2 using ATG 1240 as a template. The variants were then cloned into pF4Ag (no HT7). The library was screened as follows (50 plates total):
i. Primary Screen. Cells were grown as described in Example 2. Cell lysates were prepared by diluting 100 μL of induced culture with 100 μL of lysis buffer (0.3×PLB+0.006U RQDNAse1) using a Tecan liquid handling robot. 50 μL of each cell lysate was then assayed with either PBI-4813 or PBI-4739. (20 μM substrate in Bright-Glo™ assay buffer containing 1 mM ATP). Luminescence was detected on a GloMax® Discover.
ii. Secondary Screen. Cells from each hit in the primary screen were streaked onto new plates and grown overnight. Colonies were picked in quadruplicate and cultures were grown as described in Example 2. 50 μL of each cell lysate was assayed with 50 μL of BrightGlo™ assay buffer containing 1 mM ATP and 30 μM PBI-4813 or 50 μM PBI-4739. Luminescence was detected on a GloMax® Discover Multimode Detection System (Table 6). The variants in this library were identified as having on average between 2-3 mutations per gene.

Row | Molecule | Km with ATG1240, lower than CBR with D-luciferin (ATG1240) | Km with CBR in the lysates, lower than CBR with D-luciferin (CBR [1]) | Km for CBR in live cells, lower than the Km for D-luciferin (CBR [2]) | Km for CBR, lower relative to D-luciferin (CBR [3]) | spectral maximum with QuantiLum® luciferase (firefly) [4] [nm] | luminescence of ATG 1240 at the greatest light attenuation (ATG 1240) | Km less than for D-luciferin in live cell [5] | substrate inhibition by the substrate [6] | cell toxicity (cells) | brightness of light emission [7] | solubility [8] | Luminescence, PBI-4739 ([9]; cell lysate, 20 μM PBI-4739) | Luminescence, PBI 4813 ([9]; cell lysate, 20 μM PBI-4813, GloMax Discover red-sensitive PMT) | PBI-4813/PBI-4739 ([9]; ratio of luminescence with the two substrates) | Km higher than the Km of CBR with PBI-4739 [10] | Km higher than the Km of CBR with PBI-4813 [10] | Luminescence, secondary screen, PBI-4813 ([11]; 30 μM PBI-4813, 1 mM ATP) | Luminescence, secondary screen, PBI-4739 ([11]; 50 μM PBI-4739, 1 mM ATP) | inhibition of luciferase activity by PBI-4813 ([6]; PBI-4813 at concentrations greater than ten times the Km)
1 | Nc1ccc2c(ccc3nc(C4=NC(C(=O)O)CS4)sc32)c1 (stereo not shown) [PBI-4813] | about 5 × | about 30 × | about 20 times | about 23 times | 680 | comparable | more than 10 times | possible substrate inhibition | comparable non-toxicity to D-luciferin | brighter |  |  |  |  |  |  |  |  | 
2 | O=C(O)C1CSC(c2nc3ccc4cc(O)ccc4c3s2)=N1 (stereo not shown) [PBI-4739] |  |  |  | about 5 times | ≥ 700 |  |  |  | comparable non-toxicity to D-luciferin |  | less soluble |  |  |  |  |  |  |  | 
3 | ATG 1240: CBR variant R334S and G351R (SEQ ID NO: 2) (protein) MVKREKNVIYGPEPLHPLEDLTAGEMLFRALRKHSHLPQALVDVVGDESLSYKEFFEATVLLAQSLHNCGYKMNDVVSICAENNTRFFIPVIAAWYIGMIVAPVNESYIPDELCKVMGISKPQIVFTTKNILNKVLEVQSRTNFIKRIIILDTVENIHGCESLPNFISRYSDGNIANFKPLHFDPVEQVAAILCSSGTTGLPKGVMQTHQNICVRLIHALDPRYGTQLIPGVTVLVYLPFFHAFGFHITLGYFMVGLRVIMFRRFDQEAFLKAIQDYEVRSVINVPSVILFLSKSPLVDKYDLSSLRELCCGAAPLAKEVAEVAAKRLNLPGISCGFGLTESTSAIIQTLRDEFKSGSLGRVTPLMAAKIADRETGKALGPNQVGELCIKGPMVSKGYVNNVEATKEAIDDDGWLHSGDFGYYDEDEHFYVVDRYKELIKYKGSQVAPAELEEILLKNPCIRDVAVVGIPDLEAGELPSAFVVKQPGTEITAKEVYDYLAERVSHTKYLRGGVRFVDSIPRNVTGKITRKELLKQLLVKAGGV |  |  |  |  |  |  |  |  |  |  |  | 37,169 | 71,299 | 1.9 | about 3 times | about 5 times | 1.2 and 1.01 and 1.0 and 0.9 and 1.02 and 0.97 | 1.1 and 1.05 and 1.0 and 0.99 and 0.97 and 0.9 | does not show this inhibition

— US12460245B2, “Luciferase sequences utilizing infrared-emitting substrates to produce enhanced luminescence” (Promega Corporation, priority 2014, dated 2025)
